In publication PMC12216181 (Nature Communications, 2025):

What was measured:
EV-D68 [1] = conditions: AG129 mice; cited from earlier work
EV-D68 [2] = conditions: EV-D68 infection neonatal mouse model; cited from earlier work
EV-D68-associated AFM = conditions: patients with EV-D68-associated AFM; cited from earlier work
EV-D68 US/MO/14-18947 [3] = assay: Plaque assay, EV-D68 US/MO/14-18947 in RD cells; type: cell-based; conditions: Enterovirus D, EVD68, RD
EV-A71 Tainan/4643/1998 = assay: Plaque assay, EV-A71 Tainan/4643/1998; type: cell-based; conditions: Enterovirus A, EVA71, plaque assay
EV-D68 US/MO/14-18947 [4] = assay: Time-of-addition experiment, single cycle of EV-D68 replication in RD cells; type: cell-based, Enterovirus D68; conditions: 3 µM
[5] = test system: EV-D68 US/MO/14-18947 passaged viruses; assay: Serial passage experiment 1: drug sensitivity of passaged viruses; type: cell-based, Enterovirus D68; conditions: Enterovirus D, CPE assay
EV-D68 US/IL/14-18952 = assay: EV-D68 infection neonatal mouse model; type: in vivo, Swiss Webster mice; conditions: for Weight at DPI14: 50 mg/kg i.p. daily
[6] = Drug concentration in the spinal cord by LC-MS/MS; type: in vivo, Swiss Webster mouse pups; conditions: Swiss Webster, mouse, ip, 50 mg/kg, one hour after the intraperitoneal injection
[7] = Tolerability in uninfected Jun6504-treated mice; type: in vivo; conditions: 50 mg/kg dose, uninfected treated animals
EV-D68 [8] = assay: IHC staining of spinal cord sections of EV-D68-infected mice; type: in vivo, Swiss Webster pups; conditions: 8 DPI, 24-h delayed treatment model
EV-D68 [9] = conditions: EV-D68 animal infection models; cited from earlier work

## CCOC(=O)c1ccc(OCCC2CCN(c3ccc(C)nn3)CC2)cc1 [pirodavir]
EV-D68 [1]
  therapeutic efficacy: no therapeutic efficacy

## NC(=O)c1ncn([C@@H]2O[C@H](CO)[C@@H](O)[C@H]2O)n1 [ribavirin]
EV-D68 [1]
  therapeutic efficacy: no therapeutic efficacy

## CCOC(=O)/C=C/[C@H](C[C@@H]1CCNC1=O)NC(=O)[C@@H](CC(=O)[C@@H](NC(=O)c1cc(C)on1)C(C)C)Cc1ccc(F)cc1 [rupintrivir]
EV-D68 [1]
  therapeutic efficacy: no therapeutic efficacy

## CNCCC(Oc1ccc(C(F)(F)F)cc1)c1ccccc1 (stereo not shown) [fluoxetine]
EV-D68 [2]
  effect on motor impairment and viral titers: did not reduce motor impairment or viral titers in the muscle and spinal cord
EV-D68-associated AFM
  neurological outcomes: failed to improve neurological outcomes

## CC(C)n1ncc2c(C(=O)NCC3(C)CNC3)cc(C3CC3)nc21 [Jun6504]
EV-D68 US/MO/14-18947 [3]
  EC50: 130 nM
EV-A71 Tainan/4643/1998
  EC50: 220 nM
EV-D68 US/MO/14-18947 [4]; added at 5 hpi
  effect on antiviral potency: significant reduction in the antiviral potency
EV-D68 US/MO/14-18947 [4]; added at 7 hpi
  effect on efficacy: almost complete loss of efficacy
EV-D68 US/MO/14-18947 [4]; added before or at 3 h post-infection
  effect on EV-D68 amplification: completely inhibited EV-D68 amplification
[5]; EVD68, P3 virus, selection pressure 400 nM
  EC50: 800 nM
[5]; EVD68, P6 virus, selection pressure 3.2 μM
  EC50: 3380 nM
EV-D68 US/IL/14-18952; 24-h delayed treatment model, control 8.65 ± 0.23 g
  Weight at DPI14: 9.59 ± 0.27 g
EV-D68 US/IL/14-18952; DPI5 after 4 daily doses, 24-h delayed model, control 19,834 ± 11,519
  Viral titer in spinal cord: 4520 ± 1796 TCID50
EV-D68 US/IL/14-18952; immediate treatment model, control 7.92 ± 0.46 g
  Weight at DPI14: 9.29 ± 0.14 g
[6]
  concentration at 1 h: ~575 ng/g
[7]
  tolerability: no signs of pain, weight loss, or death were observed
EV-D68 [8]
  EV-D68-infected (NeuN+) neurons in the cervical enlargement: no infected (NeuN+) neurons were observed
EV-D68 [8]; treated animals with paralysis score 0
  ChAT-positive motor neurons in lumbar spinal cord: many ChAT-positive motor neurons present

## N=C(N)N [guanidine]
EV-D68 [9]
  in vivo antiviral activity: have shown in vivo antiviral activity

## CC(C)S(=O)(=O)n1c(N)nc2ccc(/C(=N/O)c3ccccc3)cc21 [enviroxime]
EV-D68 [1]
  therapeutic efficacy: no therapeutic efficacy

## Cc1cc(CCCOc2c(C)cc(-c3noc(C(F)(F)F)n3)cc2C)on1 [pleconaril]
EV-D68 [1]
  therapeutic efficacy: no therapeutic efficacy
